The target of one data set is T1, GST-MSUT2 (Homo sapiens, UniProt Q6PJT7).
T1 construct: Targeted construct consisted of the c-terminal end (dark blue and amino acids 601-736) of MSUT2; made in house; host or cells: E. coli BL21 (DE3)
T1 sequence (Q6PJT7 601-736): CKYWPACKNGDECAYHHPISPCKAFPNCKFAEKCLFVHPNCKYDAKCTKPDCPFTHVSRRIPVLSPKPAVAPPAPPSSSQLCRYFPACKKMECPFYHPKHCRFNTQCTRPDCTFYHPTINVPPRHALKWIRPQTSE
Kind of data set: Alpha Screen assay of biotinylated poly(A) RNA:GST-MSUT2 binding. The following applies: orthogonal dose-response validation. As for the experimental part: Alpha Screen Assay. Samples were set up in 384 well Perkin Elmer white opaque-bottom plates (PE06). A total reaction volume of […] was plated in 384 format using a CyBio Well Vario (6 μL of donor beads (10 μg/mL), 3 μL biotinylated RNA (250 nM), 3 μL GST-MSUT2 protein (250 nM) per well). 50 nL of compounds were transferred to wells via CyBio Vario equipped with Pin Tool. This mixture was incubated at room temperature for 30 minutes away from light. Next 3 μL of acceptor beads (1.25 μg/mL) was added. Plates were incubated at room temperature away from light for 60 minutes and subsequently read on a Perkin Elmer EnVision multimode microplate reader equipped with stackers using a standard 384-well Alpha Assay software protocol.
Results. Alpha Screen design and underlying principle. Alpha Screen technology relies on donor beads, coated with a hydrogel excitable by 680 nm, brought within close proximity to an acceptor bead leading to light emission and detection. In this assay, streptavidin coated donor beads tightly bind to biotinylated-poly(A) RNA while the glutathione-coated acceptor bead binds to GST-tagged MSUT2 protein. […] When this interaction is blocked by an inhibitor, the proximity threshold for donor and acceptor beads is not met, singlet oxygen transference cannot occur, and light is not emitted by the acceptor bead (FIG. 1a).
Identification and validation of MSUT2 inhibitory compounds from NIHCC library. The single-point primary screen was conducted in duplicate and utilized the FP assay conditions determined herein (e.g., 125 nM MSUT2 RNABP and 10 nM FAM-RNA probe) with 10 μM library compounds added in a 96-well format. […] Compound specificity was empirically tested by counter screening against PABPN1, a regulator of the length of mRNA poly(A) tails (Apponi, L. H. et al. Hum Mol Genet 19, 1058-1065, (2010); and Benoit, B. et al. Dev Cell 9, 511-522, (2005)). IC50 of each of the previous 8 compounds was determined for PABPN1 using fluorescence polarization (FIG. 11), and a specificity ratio determined (Table 3). An Alpha Screen (AS) assay was developed as an orthogonal screen. Briefly, in this screen, biotinylated RNA binds streptavidin-coated donor beads, while GST-MSUT2 ZF binds glutathione-coated acceptor beads. […] Toxicity of these compounds in a HEK cell model was determined using a standard Promega Cell Titer Glo assay.
Alpha Screen Assay. […] The plate was then incubated again at room temperature away from light for 60 minutes and subsequently read on a Perkin Elmer EnSight multimode microplate reader using a standard 96-well Alpha Assay protocol.

The next data set deals with poly(A). The following applies: cited from earlier work.
The target in a further data set is T2, PABPN1 (Homo sapiens, UniProt Q86U42).
T2 construct: made in house; host or cells: E. coli BL21 (DE3)
T2 sequence (Q86U42 1-306): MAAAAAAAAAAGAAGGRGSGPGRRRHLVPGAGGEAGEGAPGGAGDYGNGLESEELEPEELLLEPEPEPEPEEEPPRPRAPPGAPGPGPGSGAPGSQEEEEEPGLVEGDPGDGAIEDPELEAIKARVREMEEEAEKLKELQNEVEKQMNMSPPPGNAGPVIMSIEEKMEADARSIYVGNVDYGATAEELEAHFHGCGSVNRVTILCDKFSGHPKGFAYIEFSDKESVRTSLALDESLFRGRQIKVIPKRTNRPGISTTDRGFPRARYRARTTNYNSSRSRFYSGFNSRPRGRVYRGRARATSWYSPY
Kind of data set: PABPN1 fluorescence polarization counter screen. The format is binding. As to the method: A drug repurposing strategy: screening of the NIH Clinical Collection compound library. […] The plan to find suitable lead compounds for drug repurposing began with a screen of the NIH Clinical Collection (NIHCC) library. The NIHCC consists of a diverse array of 700 compounds with historical pharmacological use and well-studied safety profiles. […] An orthogonal poly(A):MSUT2 binding assay allowed the ruling out of assay interference while selectivity against MSUT2 over PABPN1 was determined by a parallel FP assay with PABPN1 as the RBP. […] Thus, the goal was to eliminate compounds interfering with both PABN1 and MSUT2 and focus on compounds truly specific for poly(A):MSUT2 binding.
(§1) Identification and validation of MSUT2 inhibitory compounds from NIHCC library. […] IC50 of each of the previous 8 compounds was determined for PABPN1 using fluorescence polarization (FIG. 11), and a specificity ratio determined (Table 3). An Alpha Screen (AS) assay was developed as an orthogonal screen. Briefly, in this screen, biotinylated RNA binds streptavidin-coated donor beads, while GST-MSUT2 ZF binds glutathione-coated acceptor beads. When donor beads and acceptor beads are brought within close proximity of one another, laser excitation leads to fluorophore emission of the acceptor bead via excited singlet oxygen activating chemiluminescers in the acceptor beads. […] Toxicity of these compounds in a HEK cell model was determined using a standard Promega Cell Titer Glo assay.
(§2) Fluorescence Polarization Assay. […] of stock compound was transferred yielding 10 μM final concentration. […] Fluorescence polarization was calculated by first subtracting background from a buffer-only control well and then using the equation
For orientation: Polarisation of emitted light reports the rotation of a fluorescent probe.

The conditions of data set [1]: in vivo; cited from earlier work.
The target in another data set is T3, MSUT2 ZF (Homo sapiens, UniProt Q6PJT7).
T3 construct: Targeted construct consisted of the c-terminal end (dark blue and amino acids 601-736) of MSUT2; made in house; host or cells: E. coli BL21 (DE3)
T3 sequence (Q6PJT7 601-736): T1 sequence (Q6PJT7 601-736)
Nature of the data set: Fluorescence polarization assay of FAM-poly(A) RNA:MSUT2 ZF binding. As for the experimental part: Fluorescence Polarization Assay. […] 2 μL of compound was transferred for a final concentration of 10 μM. […] Fluorescence polarization was calculated by first subtracting background from a buffer-only control well and then using the equation
Results and Discussion. A high-throughput fluorescence polarization assay for inhibition of poly(A):MSUT2 RNA interaction. […] In order to screen potential inhibitors of MSUT2 RBP and RNA by FP, fluorescent FAM (fluorescein amidite)-labeled poly(A)15 RNA (FAM-RNA) and recombinant MSUT2 ZF (zinc finger) protein expressing constructs were generated (FIG. 7a). […] Inhibition of the interaction results in unbound FAM-RNA tumbling at a relatively rapid rate and emitting non-polarized light (FIG. 7b).
To determine the concentrations of both MSUT2 ZF protein and FAM-RNA probe useful in the methods described herein, a two dimensional titration of protein and RNA concentrations in 96-well format was performed. […] Next, the binding constant between MSUT2 ZF and FAM-RNA was determined by holding FAM-RNA constant at 10 nM while increasing MSUT2 ZF concentration.
as §1, §2

The target in data set [2] is 3′,5′-cyclic phosphodiesterase. Conditions: read-out: Ki (nM) for Known Target; cited from earlier work.
In data set [3] the test system is rat model of chronic cerebral hypoperfusion. Conditions: cited from earlier work.
The subject of another data set is elderly patients. Conditions: 10 year study of 20,215 elderly patients; cited from earlier work.
Another data set concerns the target T4, MSUT2 (Homo sapiens, UniProt Q6PJT7).
T4 sequence (Q6PJT7 1-736): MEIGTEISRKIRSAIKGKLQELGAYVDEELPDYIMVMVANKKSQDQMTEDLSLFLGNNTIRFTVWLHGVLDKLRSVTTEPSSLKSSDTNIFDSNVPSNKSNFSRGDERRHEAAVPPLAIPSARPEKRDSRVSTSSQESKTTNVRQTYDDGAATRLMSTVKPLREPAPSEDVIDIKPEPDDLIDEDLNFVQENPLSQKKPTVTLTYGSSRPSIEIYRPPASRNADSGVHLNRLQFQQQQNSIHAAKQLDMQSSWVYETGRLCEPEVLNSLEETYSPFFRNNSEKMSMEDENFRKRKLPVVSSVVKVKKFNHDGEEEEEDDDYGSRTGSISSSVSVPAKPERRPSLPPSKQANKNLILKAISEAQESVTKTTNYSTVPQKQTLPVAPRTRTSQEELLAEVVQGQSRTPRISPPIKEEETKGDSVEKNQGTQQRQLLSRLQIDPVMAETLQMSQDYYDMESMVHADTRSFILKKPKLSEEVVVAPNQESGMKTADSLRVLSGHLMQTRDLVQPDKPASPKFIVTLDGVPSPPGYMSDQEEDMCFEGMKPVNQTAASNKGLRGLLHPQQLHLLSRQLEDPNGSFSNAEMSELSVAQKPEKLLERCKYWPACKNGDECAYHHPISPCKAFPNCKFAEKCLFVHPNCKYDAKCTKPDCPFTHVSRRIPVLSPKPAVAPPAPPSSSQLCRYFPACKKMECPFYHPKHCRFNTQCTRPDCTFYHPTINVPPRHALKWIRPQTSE
Conditions: read-out: Kd of MSUT2 for poly(A); cited from earlier work.

Experimental for HEK-293 cells: Cell culture and cytotoxicity screen. […] Cell viability was assessed as using Promega Cell Titer Glo (Promega G7570) per manufacturer protocol. Briefly, HEK-293 cells were grown to 70% confluence in a 96 well plate were treated with indicated concentrations of compounds and incubated for 72 hours at 37° C. Plates were read for luminescence on Perkin Elmer Enspire Alpha.
Cell viability was assessed. Briefly, HEK-293 cells grown to 70% confluence in a 96 well dish were treated with varying concentrations of compound (final concentration of 2% DMSO) and incubated for 72 hours. Next, Promega Cell Titer Glo assay was used to assess viability per manufacturer instructions (Promega G7570).

Take `O=S(=O)(O)c1cc(N=C=S)ccc1C=Cc1ccc(N=C=S)cc1S(=O)(=O)O` [4,4-diisothiocyanostilbene-2,2′-sulfonic acid]: the “toxicity (effect on cell viability)” value with HEK-293 cells was “relatively non-toxic at the doses tested”.

Regarding `CC(C)/N=c1\cc2n(-c3ccc(Cl)cc3)c3ccccc3nc-2cc1Nc1ccc(Cl)cc1` [Clofazimine], the “inhibition activity by Alpha Screen (AS)” value at GST-MSUT2 is “dose-dependent inhibition activity”. In addition, in the data set on poly(A), the “interaction with poly(A)” value is “little interaction”. The IC50 was found to be 50600 nM on PABPN1 (fluorescence polarization counter screen, unit inferred, read-out: IC50PABPN1) and 990 nM on MSUT2 ZF (read-out: IC50MSUT2). For the same molecule, the PABPN1/MSUT2 specificity ratio on PABPN1 (ratio of FP IC50s) is 51.07. For the same molecule, the “crossing of the blood brain barrier” value in data set [1] is reported as “unable to cross the blood brain barrier”. Also, the inhibition constant (Ki) (commonly a dissociation constant, usually derived from enzyme kinetics or from competition with a known ligand) at MSUT2 ZF (calculated by Cheng Prusof equation Ki=(IC50)/[(L/Kd)+1], FP dose response, read-out: Ki (nm) for MSUT2) is 978 nM.

Consider `OCCN(CCO)c1nc(N2CCCCC2)c2nc(N(CCO)CCO)nc(N3CCCCC3)c2n1` [Dipyridamole], for which, in [2], the inhibitory constant (Ki) is 1000 nM. Further, the “Ki (nm) for MSUT2” value at MSUT2 ZF (calculated by Cheng Prusof equation Ki=(IC50)/[(L/Kd)+1], FP dose response) is “failed DR”.

For the molecule `CNCC[C@H](Oc1cccc2ccccc12)c1cccs1` [Duloxetine], the “neuronal loss in the hippocampus” value in data set [3] is given as “attenuated neuronal loss in the hippocampus”. In addition, at GST-MSUT2, the “inhibition activity by Alpha Screen (AS)” value is given as “dose-dependent inhibition activity”. Besides, the risk of dementia result with elderly patients is reported as “associated with reduced risk of dementia”. Also, the IC50PABPN1 entry at PABPN1 (fluorescence polarization counter screen, unit not given) is “None”.

For “poly(A): poly(A) RNA, natural ligand of MSUT2 (AAAAAAAAAAAAAAA; RNA, backbone not given here)”, the Kd – broadly, a measure of binding affinity in units of concentration – in the data set with MSUT2 was 60 ± 15 nM.

The values above are taken from US20210386709A1, “COMPOSITIONS AND METHODS FOR SUPPRESSING MSUT2” (United States Government As Represented By The Department …, priority 2020, published 2021).
